The results in this text go back to patent publication US20170065520A1, “STABLE LIPOSOMAL FORMULATIONS OF RAPAMYCIN AND RAPAMYCIN DERIVATIVES FOR TREATING CANCER” (Manli International Ltd, priority 2015, published 2017).

A short description of this data set: In vitro drug release assay (dialysis tube, 50 kDal cut-off). In kind it is physicochemical. Particulars: control formulation (drug in 15% acetonitrile and 85% water), within 48 h. The procedure:
An in vitro drug release assay was used to determine release profiles of umirolimus, sirolimus, and everolimus. Umirolimus-loaded liposomes were prepared as described above in EXAMPLE 1, and sirolimus-loaded and everolimus-loaded liposomes were prepared as described above in EXAMPLE 4.
For each drug, a control formulation was prepared containing 1.0 mg of drug in 5 mL of a solution containing 15% acetonitrile and 85% water. 5 mL of the control formulations and the liposomal formulations for each drug were loaded into separate dialysis tubes having a molecular weight cut-off of 50 kDal.
Each loaded dialysis tube was placed in an individual 50 mL tube containing 40 mL of release media (15% acetonitrile and 0.5% SDS). The release media in each tube was sampled after 1, 2, 5, 7, 24, 30, and 48 h and the drug concentration in the release media was determined by HPLC as described above in EXAMPLE 1. The cumulative drug release percentage versus release time was plotted for all samples. The results are shown in FIGS. 1, 2, and 3 for umirolimus, everolimus, and sirolimus, respectively.

Regarding 40-alkoxyalkyl-rapamycin [umirolimus], the “starting amount of drug diffused out of the dialysis tubing” value is given as 67%.
